Holding throughout (test): agar-dilution MIC
Type in all cases: cell-based

In assay [1] the test system is Klebsiella pneumoniae KAE.
Assay [2] has as its system Streptococcus faecium ATCC 9790.
The subject of assay [3] is Haemophilus influenzae C.L.
In assay [4] the test system is Haemophilus influenzae 76.
The subject of assay [5] is Klebsiella pneumoniae X68.
The subject of assay [6] is Streptococcus pyogenes C203.
Assay [7] has as its system Streptococcus sp. group D 2041.

In brackets after ≈: the same amount, converted by molar mass.

Regarding `CN[C@H](CC(C)C)C(=O)N[C@H]1C(=O)N[C@@H](CC(N)=O)C(=O)N[C@H]2C(=O)N[C@H]3C(=O)N[C@H](C(=O)N[C@H](C(=O)O)c4cc(O)cc(O)c4-c4cc3ccc4O)[C@H](O)c3ccc(c(Cl)c3)Oc3cc2cc(c3O[C@@H]2O[C@H](CO)[C@@H](O)[C@H](O)[C@H]2O[C@H]2C[C@](C)(N)[C@H](O)[C@H](C)O2)Oc2ccc(cc2Cl)[C@H]1O` [Vancomycin], the MIC in assay [1] is > 128 µg/mL; in assay [2] it was 1 µg/mL (≈ 0.69 µM); in assay [3] it was 64 µg/mL (≈ 44.2 µM); in assay [4] it was 128 µg/mL (≈ 88.3 µM); in assay [5], > 128 µg/mL; in assay [6] it was 0.5 µg/mL (≈ 0.345 µM). The same compound had an MIC in assay [7] of 4 µg/mL (≈ 2.76 µM).

These data come from US4547488A, “Antibiotic M43D, pharmaceutical compositions and method of use” (priority 1984, dated 1985).
